Data published in patent US11389449B2, “Treatment of metabolic syndrome with an sGC stimulator” (Cyclerion Therapeutics, Inc., priority 2017, dated 2022).

Experiments:
ZSF1 obese rats [1] = experiment: Oral glucose tolerance test (OGTT) and fasting glucose in ZSF1 rats at week 10; type: in vivo, rat
Method: Male ZSF1 rats (body weight 400-430 grams (lean control) and 500-605 grams (obese) at baseline) were used for this study. All animals were housed in a room under controlled conditions of temperature (72±8° F.), relative humidity of 30-70% and a 12-hour light-dark cycle (lights on at 6:00 AM and off at 6:00 PM) at a fully AAALAC accredited, USDA registered and OLAW assured laboratory animal research facility. All animals were allowed free access to rodent chow (Purina 5008+/−test articles) and water (+/−enalapril).
(§1) Blood and 24-hour urine samples were obtained from all animals at day 0 (15 weeks of age; prior to the initiation of enalapril treatment). Animals in Groups 3, 7, 8 and 9 were placed on drinking water containing enalapril and kept on Purina 5008 rodent chow (C13000). Animals in Group 1, 2, 4, 5 and 6 were kept on Purina 5008 rodent chow and drinking water. Ten days after the initiation of enalapril treatment, blood and 24-hour urine samples were collected from all animals. After day 10 blood and urine collections, animals in Groups 4, 5 and 6 received Compound I at 1, 3 and 10 mg/kg/day, respectively for 11 weeks. In addition to enalapril treatment, animals in Groups 7, 8 and 9 received Compound I at 1, 3 and 10 mg/kg/day, respectively for an additional 11 weeks.
(§2) 10 weeks after the initiation of Compound I treatment, animals (27 weeks of age) were fasted for 18 hours. Serum samples were collected for the measurement of fasting insulin levels. Serum insulin levels were determined using the Rat Insulin ELISA kit (Cat #ELR-Insulin, RayBiotech, Inc.)
For OGTT, animals were given glucose solution (50% Dextrose) at 2 g/kg via oral gavage. Blood samples were collected prior to oral glucose administration (0 minute) and 30, 60, 90, 120 and 180 minutes after administration. Blood glucose levels were measured using a standard blood glucose monitoring system (AlphaTRAK). The blood glucose reading at time 0 (prior to glucose administration) corresponds to the fasting glucose measurement.
(§3) The data are expressed as mean±SEM. […] One-tailed tests were used for comparison of variables. Statistical significance is indicated by P values less than 0.05.

ZSF1 obese rats [2] = experiment: Fasting serum insulin in ZSF1 rats (Rat Insulin ELISA); type: in vivo
Description: as §1, §2, §3

ZSF1 obese rats [3] = experiment: ZSF1 rat study: serum clinical chemistry (cholesterol, triglycerides), body weight, clinical observations; type: in vivo
Description: as §1
Body weight and 24-hour water intake were obtained at least once every other week. 24-hour food intake was measured at baseline and week 8.
Plasma (for biomarker) and serum (for clinical chemistry analysis) samples were collected from all treatment groups at baseline, day 10, weeks 5 and 9 prior to placing the animals into the metabolic cages. Plasma samples were obtained from Groups 3-9 for measurement of compound exposure levels at weeks 5 and 11. Terminal plasma and serum samples were obtained at necropsy.
For serum samples, blood was collected in serum separator tubes, maintained at room temperature for at least 30 minutes and then centrifuged at 6000 rpm for 10 minutes. Serum samples were stored at −80° C. until analysis. Urine and serum samples were analyzed using the Randox Daytona Clinical Chemistry Analyzer. All measurements were performed in accordance with manufacturer's instructions.
Animal #8 (in Group 3, ZSF1—enalapril 3 mg/kg/day) was found dead 3 days after the initiation of enalapril treatment.

[4] = test system: obese/high fat diet C57Bl/6J mice; experiment: Diet induced obesity (DIO) mouse model: body weight and food intake; type: in vivo; conditions: DIO HFD mice, approx 6 mg/kg in diet
Description: (§4) The objective of this animal study was to evaluate the effects of Compound I in the mouse diet induced obesity (DIO) model. Assessments included body weight, food intake, oral glucose tolerance test (OGTT) and fasting plasma biomarkers of metabolic control.
(§5) Male C57Bl/6J mice with baseline body weights of 25.0-29.0 grams (lean controls) and 31.5-45.0 grams (obese/high fat diet treated) respectively, were used for this study. The lean mice (n=8) were maintained on a standard chow diet. The obese mice were given 60% high fat diet (HFD) starting at 6 weeks of age. All animals were allowed free access to drinking water and chow. The study was begun when the mice were 12 weeks of age and concluded after 4 weeks (16 weeks of age). The obese control group (n=8 mice) was maintained on HFD. The Compound I group (n=8 obese mice) was treated with HFD containing 90 mg Compound I/kg (an approximate dose of 6 mg/kg). Body weights were determined twice weekly and food intake was measured daily for 28 days. An OGTT was performed on each animal at day 28 or 29 and the animals were sacrificed on the following day. On the terminal day, 3 hour fasted blood was collected for compound concentrations and plasma biomarkers analysis including glucose, insulin and triglycerides. Organs were collected, weighed and snap frozen in liquid nitrogen for further analysis.

[5] = test system: obese/high fat diet C57Bl/6J mice; experiment: DIO mouse model: oral glucose tolerance test; type: in vivo; conditions: DIO HFD mice, approx 6 mg/kg in diet, week 4
Description: as §4, §5

[6] = obese ZSF1 rats, 3 and 10 mg/kg, compared to placebo and enalapril, not statistically significant

## OC(CNc1nc(-c2cc(-c3ccon3)n(Cc3ccccc3F)n2)ncc1F)(C(F)(F)F)C(F)(F)F [Compound I]
ZSF1 obese rats [1]; Compound I 1 mpk
  Fasting Blood Glucose (0 minute): 267 ± 38 mg/dL
  OGTT Area Under Curve (AUC): 84945 ± 5344
  OGTT Blood Glucose 120 minutes: 475 ± 33 mg/dL
  OGTT Blood Glucose 180 minutes: 398 ± 30 mg/dL
ZSF1 obese rats [1]; Compound I 3 mpk
  Fasting Blood Glucose (0 minute): 202 ± 10 mg/dL
  OGTT Area Under Curve (AUC): 77402 ± 3526
  OGTT Blood Glucose 120 minutes: 424 ± 19 mg/dL
  OGTT Blood Glucose 180 minutes: 355 ± 24 mg/dL
ZSF1 obese rats [1]; Compound I 10 mpk
  Fasting Blood Glucose (0 minute): 194 ± 9 mg/dL
  OGTT Area Under Curve (AUC): 77090 ± 1817
  OGTT Blood Glucose 120 minutes: 421 ± 11 mg/dL
  OGTT Blood Glucose 180 minutes: 385 ± 14 mg/dL
ZSF1 obese rats [2]; week 10, Compound I 1 mpk
  Fasting Insulin: 15.7 ± 3.5 μIU/mL
ZSF1 obese rats [2]; week 10, Compound I 3 mpk
  Fasting Insulin: 15.6 ± 2.7 μIU/mL
ZSF1 obese rats [2]; week 10, Compound I 10 mpk
  Fasting Insulin: 11.7 ± 1.6 μIU/mL
ZSF1 obese rats [3]; obese ZSF1 rats
  reduction of weight: No effects were observed
ZSF1 obese rats [3]; [6]
  effect on cholesterol levels: some reduction in cholesterol was observed
  effect on triglyceride levels: some reduction in TGs was observed
ZSF1 obese rats [3]; rat, in vivo, 1 mg/kg/day
  clinical observation: enlarged left kidney's filled with brown fluid consistent with hydronephrosis
[4]; Day 28, P<0.0001
  body weight gain change vs obese controls: −37%
[4]; Day 28, P<0.05
  increase in food intake vs obese controls: 11%
[4]; days 12-14 and 16-28
  cumulative food intake vs obese controls: Significant increases
[4]; from 0.5 weeks for the duration of the study
  body weight gain vs obese controls: significant reductions
[5]
  Fasting blood glucose: not reduced
[5]; P<0.05
  OGTT area above baseline change vs obese controls: −47%
  OGTT area under the curve change vs obese controls: −22%
[5]; from 30 to 120 minutes
  blood glucose excursion in OGTT vs obese controls: significant reductions
